In patent US5410068A, “Succinimidyl trityl compounds and a process for preparing same” (PerSeptive Biosystems, Inc., priority 1989, dated 1995):
{Biotin} = biotin attached to 5'-amino group

Test system: streptavidin agarose
Experiment: binding of biotin labeled oligonucleotides and amplified DNA to streptavidin agarose support
Settings: purified oligonucleotide
Method: The major component of each sample was isolated by the method described in Example 12.
Aliquots of the reaction mixture taken at 5 minutes, 55 minutes and 120 minutes were analyzed by reversed-phase HPLC. The analysis indicated complete disappearance of the major component of the crude mixture in favor of a more hydrophobic product within two hours.
Streptavidin agarose (Gibco BRL, Bethesda Md.) was treated before use. The agarose was washed three times with 200 μl of 150 mM NaCl, 10 mM NaH2 PO4 pH 7.2 containing 0.05% NaN3 and 10% acetonitrile. A 25 μl aliquot of 0.5M NaCl in 80% aqueous acetic acid containing 0.5% (w/v) aminoethanethiol hydrochloride was then washed through the resin and then 100 μl of this solution was allowed to react with the streptavidin agarose for 1 hr. The resin was again washed three times with 100 μl of 150 mM NaCl, 10 mM NaH2 PO4 pH 7.2 containing .05% NaN3 and 10% acetonitrile.
Following amplication, a portion of each PCR reaction (50 μl) was incubated with pretreated (see Example 16) streptavidin agarose (100 μl) for 30 minutes. At the end of the incubation, the supernatant was removed and the streptavidin agarose was washed twice with 100 μl of 150 mM NaCl, 10 mM NaH2 PO4 pH 7.2 containing 0.05% NaN3 and 10% acetonitrile (hereafter called streptavidin buffer).The washings were combined with the supernatant. […]

new product: biotinylated 5'-amino group containing partially protected 15-mer 5'-TCCCAGTCACGACGT-3' (treated with 1,6-diaminohexane) (DNA, 5' {Biotin}, backbone and methylation of C not given here; biotin via aminohexyl, partially protected)
binding to streptavidin agarose: shown to bind to streptavidin agarose
